From US11203591B2, “Substituted 6-azabenzimidazole compounds” (Gilead Sciences, Inc., priority 2018, dated 2021)

Biological target: human HPK1 (MAP4K1) (Homo sapiens (Human), UniProt Q92918)
Experiment: HPK1 IC50 Assay (TR-FRET peptide phosphorylation)
Format: biochemical
Method in brief: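 Pre-activated, dually phosphorylated baculovirus-expressed HPK1 kinase domain (0.15 nM) preincubated 15 min with compound, then reacted 3 h at 25° C with 10 μM ATP and 1 μM STK S1 peptide in BES pH 7.0 buffer. Phosphopeptide read by TR-FRET (665/620 nm); four-parameter fit, geometric-mean IC50.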

[1] = recombinant HPK1 kinase domain 0.15 nM, 10 μM ATP, 1 μM STK S1 peptide, geometric mean of multiple experiments
[2] = 0.15 nM HPK1, 10 μM ATP, 1 μM STK S1 peptide substrate, geometric mean

Chain of human HPK1 (MAP4K1) (Q92918 17-274): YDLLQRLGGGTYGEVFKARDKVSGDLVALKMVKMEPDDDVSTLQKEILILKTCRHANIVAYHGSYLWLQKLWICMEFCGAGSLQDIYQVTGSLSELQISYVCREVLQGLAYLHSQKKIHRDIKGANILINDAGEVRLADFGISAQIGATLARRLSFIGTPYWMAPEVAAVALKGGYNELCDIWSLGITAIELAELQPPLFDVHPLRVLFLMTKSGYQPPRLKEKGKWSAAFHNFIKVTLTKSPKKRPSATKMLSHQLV

SMILES	IC50 [1]	IC50 [2]
Cc1cc(F)c(Nc2nc(-c3cnc4c(c3)N([C@H]3C[C@@H](N5CCCCC5)C3)C(=O)C4(C)C)cc3ncn(C(C)C)c23)cc1C(=O)NC1(CF)CC1 [Example 134]	0.3 nM	–
Cc1cc(F)c(Nc2nc(-c3ccc4c(c3)N([C@H]3C[C@@H](N5CCC[C@@H](F)C5)C3)C(=O)C4(C)C)cc3ncn(C(C)C)c23)cc1C(=O)NC(C)C [Example 110]	0.2 nM	–
CNC(=O)c1cc(Nc2nc(-c3ccc4c(c3)N([C@H]3C[C@@H](N5CCC[C@@H](F)C5)C3)C(=O)C43CCN(C4COC4)CC3)cc3ncn(C(C)C)c23)c(F)cc1C [Example 170, 4-fluoro-5-((6-(1-((1S,3s)-3-((R)-3-fluoropiperidin-1-yl)cyclobutyl)-1′-(oxetan-3-yl)-2-oxospiro[indoline-3,4′-piperidin]-6-yl)-3-isopropyl-3H-imidazo[4,5-c]pyridin-4-yl)amino)-N,2-dimethylbenzamide]	0.8 nM	–
CNC(=O)c1cc(Nc2nc(-c3ccc4c(c3)N([C@H]3C[C@@H](N5CC[C@@H](F)C5)C3)C(=O)C43CCN(C4COC4)CC3)cc3ncn(C(C)C)c23)c(F)cc1C [Example 71]	0.1 nM	–
CCNC(=O)c1cc(Nc2nc(-c3ccc4c(c3)N([C@H]3C[C@@](C)(N5CCCCC5)C3)C(=O)C4(C)C)cc3ncn(C(C)C)c23)c(F)cc1Cl [Example 290, 2-chloro-5-((6-(3,3-dimethyl-1-((1s,3s)-3-methyl-3-(piperidin-1-yl)cyclobutyl)-2-oxoindolin-6-yl)-3-isopropyl-3H-imidazo[4,5-c]pyridin-4-yl)amino)-N-ethyl-4-fluorobenzamide]	–	0.07 nM
CNC(=O)c1cc(Nc2nc(-c3ccc4c(c3)N([C@H]3C[C@@H](NC(C)C)C3)C(=O)C4(C)C)cc3ncn(C(C)C)c23)c(F)cc1C [Example 14]	0.3 nM	–
CNC(=O)c1cc(Nc2nc(-c3ccc4c(c3)N(C3CC(N5CCC[C@H](C(F)F)C5)C3)C(=O)C4(C)C)cc3ncn(C(C)C)c23)ccc1C (stereo partly drawn) [Example 105B, 5-((6-(1-((1s,3s)-3-(3-(difluoromethyl)piperidin-1-yl)cyclobutyl)-3,3-dimethyl-2-oxoindolin-6-yl)-3-isopropyl-3H-imidazo[4,5-c]pyridin-4-yl)amino)-N,2-dimethylbenzamide]	0.09 nM	–
Cc1cc(F)c(Nc2nc(-c3cnc4c(c3)N([C@H]3C[C@@H](N5CCCCC5)C3)C(=O)C4(C)C)cc3ncn(C(C)C)c23)cc1C(=O)NC1(C(F)F)CC1 [Example 67]	0.3 nM	–
CNC(=O)c1cc(Nc2nc(-c3ccc4c(c3)N([C@H]3C[C@@H](N5CC[C@H](F)C5)C3)C(=O)C4(C)C)cc3ncn(C(C)C)c23)ccc1C [Example 5]	0.2 nM	–
Cc1ccc(Nc2nc(-c3ccc4c(c3)N([C@H]3C[C@@H](N5CCCCC5)C3)C(=O)C43CCN(CC(F)F)CC3)cc3ncn(C(C)C)c23)cc1C(=O)NC(C)C [Example 62]	0.1 nM	–
CNC(=O)c1cc(Nc2nc(-c3ccc4c(c3)N([C@H]3C[C@@H](N5CC(C)(C)C5)C3)C(=O)C4(C)C)cc3ncn(C(C)C)c23)c(F)cc1C [Example 120]	0.2 nM	–
CCNC(=O)c1cc(Nc2nc(-c3cc4c(nc3F)C(C)(C)C(=O)N4[C@H]3C[C@@](C)(N4CCCC5(CC5)C4)C3)cc3ncn(C(C)C)c23)c(F)c(F)c1C [Example 279, N-ethyl-3,4-difluoro-5-((6-(5-fluoro-3,3-dimethyl-1-((1s,3s)-3-methyl-3-(5-azaspiro[2.5]octan-5-yl)cyclobutyl)-2-oxo-2,3-dihydro-1H-pyrrolo[3,2-b]pyridin-6-yl)-3-isopropyl-3H-imidazo[4,5-c]pyridin-4-yl)amino)-2-methylbenzamide]	–	0.1 nM
CNC(=O)c1cc(Nc2nc(-c3cnc4c(c3)N([C@H]3C[C@@H](N5CCCCC5)C3)C(=O)C4(C)C)cc3ncn(C(C)C)c23)ccc1C [Example 18]	0.4 nM	–

More lines, now with the values ahead:

IC50 [1]	IC50 [2]	SMILES
0.08 nM	–	Cc1c(C(=O)NC2(C(F)F)CC2)cc(Nc2nc(-c3cnc4c(c3)N([C@H]3C[C@@](C)(N5CC6CCC6C5)C3)C(=O)C4(C)C)cc3ncn(C(C)C)c23)c(F)c1F (stereo partly drawn) [Example 209, 5-((6-(1-((1s,3s)-3-(3-Azabicyclo[3.2.0]heptan-3-yl)-3-methylcyclobutyl)-3,3-dimethyl-2-oxo-2,3-dihydro-1H-pyrrolo[3,2-b]pyridin-6-yl)-3-isopropyl-3H-imidazo[4,5-c]pyridin-4-yl)amino)-N-(1-(difluoromethyl)cyclopropyl)-3,4-difluoro-2-methylbenzamide]
0.1 nM	–	Cc1cc(F)c(Nc2nc(-c3ccc4c(c3)N([C@H]3C[C@@H](N5CCCCC5)C3)C(=O)C4(C)C)cc3ncn(C(C)C)c23)cc1C(=O)NC1(C(F)F)CC1 [Example 65]
0.1 nM	–	CNC(=O)c1cc(Nc2nc(-c3ccc4c(c3)N([C@H]3C[C@@H](N5CCCCC5)C3)C(=O)C43CCOCC3)cc3ncn(C(C)C)c23)c(F)cc1C [Example 35]
0.1 nM	–	CCNC(=O)c1cc(Nc2nc(-c3ccc4c(c3)N([C@H]3C[C@@H](N5CCCCC5)C3)C(=O)C4(C)C)cc3ncn(C(C)C)c23)ccc1C [Example 138]
0.1 nM	–	CNC(=O)c1cc(Nc2nc(-c3ccc4c(c3)N([C@H]3C[C@@H](N5CCCCC5)C3)C(=O)C43CCN(S(=O)(=O)C4CC4)CC3)cc3ncn(C4CC4)c23)ccc1C [Example 167]
0.1 nM	–	CNC(=O)c1cc(Nc2nc(-c3ccc4c(c3)N([C@H]3C[C@@H](N5CCCCC5)C3)C(=O)C43CCN(S(C)(=O)=O)CC3)cc3ncn(C4CC4)c23)ccc1C [Example 168]
0.1 nM	–	CNC(=O)c1cc(Nc2nc(-c3ccc4c(c3)N([C@H]3C[C@@H](N5CCCC6(CC6)C5)C3)C(=O)C43CCN(C(C)=O)CC3)cc3ncn(C4CC4)c23)ccc1C [Example 166]
0.1 nM	–	CNC(=O)c1cc(Nc2nc(-c3ccc4c(c3)N([C@H]3C[C@@H](N5CCOCC5)C3)C(=O)C4(C)C)cc3ncn(C(C)C)c23)ccc1C [Example 39]
0.1 nM	–	CNC(=O)c1cc(Nc2nc(-c3ccc4c(c3)N([C@H]3C[C@@H](N5CCCCC5)C3)C(=O)C43CCN(C(=O)C4CC4)CC3)cc3ncn(C4CC4)c23)ccc1C [Example 51]
0.06 nM	–	CC(=O)N1CCC2(CC1)C(=O)N([C@H]1C[C@@H](N3CCCCC3)C1)c1cc(-c3cc4ncn(C(C)C)c4c(Nc4ccc(C)c(C(=O)NC5CC5)c4)n3)ccc12 [Example 94]
0.1 nM	–	COCCNC(=O)c1cc(Nc2nc(-c3ccc4c(c3)N([C@H]3C[C@@H](N5CCCCC5)C3)C(=O)C4(C)C)cc3ncn(C(C)C)c23)ccc1C [Example 137]
0.04 nM	–	CCNC(=O)c1cc(Nc2nc(-c3cnc4c(c3)N([C@H]3C[C@@](C)(N5CCC6CC6C5)C3)C(=O)C4(C)C)cc3ncn(C(C)C)c23)c(F)c(F)c1Cl (stereo partly drawn) [Example 251, 5-((6-(1-((1s,3s)-3-(3-azabicyclo[4.1.0]heptan-3-yl)-3-methylcyclobutyl)-3,3-dimethyl-2-oxo-2,3-dihydro-1H-pyrrolo[3,2-b]pyridin-6-yl)-3-isopropyl-3H-imidazo[4,5-c]pyridin-4-yl)amino)-2-chloro-N-ethyl-3,4-difluorobenzamide]
0.09 nM	–	CNC(=O)c1cc(Nc2nc(-c3ccc4c(c3)N([C@H]3C[C@@H](N5CCCCC5)C3)C(=O)C43CCN(C(=O)C(C)C)CC3)cc3ncn(C4CC4)c23)ccc1C [Example 52]
0.06 nM	–	CNC(=O)c1cc(Nc2nc(-c3ccc4c(c3)N([C@H]3C[C@@H](N5CCCC(C)(C)C5)C3)C(=O)C43CCN(C(C)=O)CC3)cc3ncn(C4CC4)c23)ccc1C [Example 161]
